# Experimental data reported in patent US10351613B2, “Polypeptide for inhibition of tumor” (G-Bio Pharma Tech Co., Ltd., priority 2015, dated 2019).
# Residues, ends and D or L forms follow the SMILES beside them.
# How the values were obtained:
# [1] = tested on: tumor cell HepG2; assay type: cell-based
# Method: (§1) Inhibition of cell growth was detected by a MTT method, which is based on the principle that succinate dehydrogenase in the mitochondria of the live cells could reduce the exogenous MTT (3-(4,5-dimethyl-2-thiazolyl)-2,5-diphenyl-tetrazolium bromide) to a […] Formazan which is a blue-violet crystal, and precipitates in the cells, while the death cells could not reduce MTT. DMSO could dissolve Formazan in the cells. Absorbance value of the solution was determined at 490/570 nm by microplate reader, which could indirectly indicate the amount of the live cells. The amount of the crystal from MTT is proportional to the amount of the cells within a certain range of cell number. The supernate from the HUVEC or tumor cells in exponential phase was removed and the cells were washed by PBS once. 1 ml 0.25% trypsin (4° C.) was added for digestion at 37° C. for 2 min. Then the supernate was added for neutralization and the cells were dispersed to form a suspension and the suspension was centrifuged at 1000 rpm for 3 min. The supernate was removed and 5 ml culture mediums were added for resuspension. Cells were inoculated in a 48-well plate by 500 ul/well at the concentration of 3×10^4/ml and then incubated under 5% CO2, 37° C. for 24 hours. The supernate was removed and a culture medium containing polypeptide (Zn^2+ in the culture medium was present at the concentration of 17.39 μmol/L) was added for further incubation for 48 hours. Supernate in each well was carefully removed. The well was gently washed by PBS once in an amount of 450 μl/well. 450 μl MTT culture mediums were added into each well for further cultivation for 4 hours. The supernate was carefully discarded. DMSO was added in an amount of 450 μl/well and then the plate was placed in a shaking bed for oscillation for 10 min in dark. 150 μl supernates were transferred to a 96-well ELISA plate and absorbance value of each well was detected at 490 nm and 570 nm by the microplate reader.
# [2] = tested on: Human Umbilical Vein Endothelial Cell (HUVEC); assay type: cell-based; conditions: for biological activity compared with P2: inhibition of HUVEC and HepG2; for Cell Survival (%) at a polypeptide concentration of 120 μM: 6 h
# Method: 20 cm umbilical cord adjacent to fetus was taken, cleaned by washing, ligated at both ends, placed into 150 ml preservation solutions for umbilical cord, and stored in a 4° C. refrigerator for digestion for 6 hours. The umbilical cord was inspected to remove the damaged portion. The umbilical vein was thoroughly cleaned by washing and then 10 ml collagenase solution was injected. Then the umbilical vein was transferred to a 37° C. incubator for digestion for 15 minutes. The umbilical cord was removed and the digested solution was recovered. The digested solution was washed by PBS and centrifuged. After centrifugation, the cells were culture by re-suspension.
# as §1
Molecule,"Cell Survival (%), 1 mg/ml of polypeptide, HepG2 [1]","Cell Survival (%), 1 mg/ml of polypeptide, HUVEC [2]",biological activity compared with P2 [2],Cell Survival (%) at a polypeptide concentration of 120 μM [2],also measured
CC[C@H](C)[C@H](NC(=O)CNC(=O)[C@H](CCCNC(=N)N)NC(=O)[C@H](CCSC)NC(=O)CNC(=O)CNC(=O)[C@H](CO)NC(=O)[C@H](CC(C)C)NC(=O)[C@H](CC(N)=O)NC(=O)[C@H](CO)NC(=O)[C@H](CC(N)=O)NC(=O)[C@H](CC(C)C)NC(=O)[C@H](C)NC(=O)[C@@H](NC(=O)[C@H](CC(C)C)NC(=O)[C@H](Cc1c[nH]cn1)NC(=O)[C@H](CC(C)C)NC(=O)[C@@H](NC(=O)[C@@H]1CCCN1C(=O)[C@H](CCC(N)=O)NC(=O)[C@H](Cc1ccccc1)NC(=O)[C@H](CC(=O)O)NC(=O)[C@H](CCCNC(=N)N)NC(=O)[C@H](Cc1c[nH]cn1)NC(=O)[C@H](CO)NC(=O)[C@H](Cc1c[nH]cn1)NC(C)=O)C(C)C)C(C)C)C(=O)N[C@@H](CCCNC(=N)N)C(=O)NCC(=O)N[C@@H](C)C(=O)N[C@@H](CC(=O)O)C(N)=O [Polypeptide P2N18] (Ac-HSHRDFQPVLHLVALNSNLSGGMRGIRGAD-NH2),85%,91%,lower biological activity than P2,–,IC50 (ug/ml) HepG2 [1]: 1387.0 µg/mL; IC50 (ug/ml) HUVEC [2]: 1080.8 µg/mL
CC[C@H](C)[C@H](NC(=O)CNC(=O)[C@H](CCCNC(=N)N)NC(=O)[C@H](CCSC)NC(=O)CNC(=O)CNC(=O)[C@H](CO)NC(=O)[C@H](CC(C)C)NC(=O)[C@H](CO)NC(=O)[C@H](CO)NC(=O)[C@H](CC(N)=O)NC(=O)[C@H](CC(C)C)NC(=O)[C@H](C)NC(=O)[C@@H](NC(=O)[C@H](CC(C)C)NC(=O)[C@H](Cc1c[nH]cn1)NC(=O)[C@H](CC(C)C)NC(=O)[C@@H](NC(=O)[C@@H]1CCCN1C(=O)[C@H](CCC(N)=O)NC(=O)[C@H](Cc1ccccc1)NC(=O)[C@H](CC(=O)O)NC(=O)[C@H](CCCNC(=N)N)NC(=O)[C@H](Cc1c[nH]cn1)NC(=O)[C@H](CO)NC(=O)[C@H](Cc1c[nH]cn1)NC(C)=O)C(C)C)C(C)C)C(=O)N[C@@H](CCCNC(=N)N)C(=O)NCC(=O)N[C@@H](C)C(=O)N[C@@H](CC(=O)O)C(N)=O [Polypeptide P2S18] (Ac-HSHRDFQPVLHLVALNSSLSGGMRGIRGAD-NH2),70%,73%,lower biological activity than P2,–,–
"CC(=O)N[C@@H](Cc1c[nH]cn1)C(=O)N[C@H](C(=O)N[C@@H](Cc1c[nH]cn1)C(=O)N[C@@H](CCCNC(=N)N)C(=O)N[C@@H](CC(=O)O)C(=O)N[C@@H](Cc1ccccc1)C(=O)N[C@@H](CCC(N)=O)C(=O)N1CCC[C@H]1C(=O)N[C@H](C(=O)N[C@@H](CC(C)C)C(=O)N[C@@H](Cc1c[nH]cn1)C(=O)N[C@@H](CC(C)C)C(=O)N[C@H](C(=O)N[C@@H](C)C(=O)N[C@@H](CC(C)C)C(N)=O)C(C)C)C(C)C)[C@@H](C)O [Polypeptide P2T2-15, Ac-HTHRDFQPVLHLVAL-NH2] (Ac-HTHRDFQPVLHLVAL-NH2)",–,–,–,95%,–
CC[C@H](C)[C@H](NC(=O)CNC(=O)[C@H](CCCNC(=N)N)NC(=O)[C@H](CCSC)NC(=O)CNC(=O)CNC(=O)[C@H](CO)NC(=O)[C@H](CC(C)C)NC(=O)[C@H](CC(N)=O)NC(=O)[C@H](CO)NC(=O)[C@H](CC(N)=O)NC(=O)[C@H](CC(C)C)NC(=O)[C@H](C)NC(=O)[C@@H](NC(=O)[C@H](CC(C)C)NC(=O)[C@H](Cc1c[nH]cn1)NC(=O)[C@H](CC(C)C)NC(=O)[C@@H](NC(=O)[C@@H]1CCCN1C(=O)[C@H](CCC(N)=O)NC(=O)[C@H](Cc1ccccc1)NC(=O)[C@H](CC(=O)O)NC(=O)[C@H](CCCNC(=N)N)NC(=O)[C@H](Cc1c[nH]cn1)NC(=O)[C@@H](NC(=O)[C@H](Cc1c[nH]cn1)NC(C)=O)[C@@H](C)O)C(C)C)C(C)C)C(=O)N[C@@H](CCCNC(=N)N)C(=O)NCC(=O)N[C@@H](C)C(=O)N[C@@H](CC(=O)O)C(N)=O [Polypeptide P2T2N18] (Ac-HTHRDFQPVLHLVALNSNLSGGMRGIRGAD-NH2),7%,3%,obviously higher than that of P2,–,IC50 (ug/ml) HepG2 [1]: 187.9 µg/mL; IC50 (ug/ml) HUVEC [2]: 71.4 µg/mL; reduction of IC50 concentration as compared to that of P2 ([2]; HUVEC and HepG2): about 10 folds
CC(=O)N[C@@H](Cc1c[nH]cn1)C(=O)N[C@H](C(=O)N[C@@H](Cc1c[nH]cn1)C(=O)N[C@@H](CCCNC(=N)N)C(=O)N[C@@H](CC(=O)O)C(=O)N[C@@H](Cc1ccccc1)C(=O)N[C@@H](CCC(N)=O)C(=O)N1CCC[C@H]1C(=O)N[C@H](C(=O)N[C@@H](CC(C)C)C(=O)N[C@@H](Cc1c[nH]cn1)C(=O)N[C@@H](CC(C)C)C(=O)N[C@H](C(=O)N[C@@H](C)C(=O)N[C@@H](CC(C)C)C(=O)N[C@@H](CC(N)=O)C(=O)N[C@@H](CO)C(=O)N[C@@H](CO)C(=O)N[C@@H](CC(C)C)C(=O)N[C@@H](CO)C(N)=O)C(C)C)C(C)C)[C@@H](C)O [Polypeptide P2T2S18-20] (Ac-HTHRDFQPVLHLVALNSSLS-NH2),–,–,–,52%,–
CSCC[C@H](NC(=O)CNC(=O)CNC(=O)[C@H](CO)NC(=O)[C@H](CC(C)C)NC(=O)[C@H](CO)NC(=O)[C@H](CO)NC(=O)[C@H](CC(N)=O)NC(=O)[C@H](CC(C)C)NC(=O)[C@H](C)NC(=O)[C@@H](NC(=O)[C@H](CC(C)C)NC(=O)[C@H](Cc1c[nH]cn1)NC(=O)[C@H](CC(C)C)NC(=O)[C@@H](NC(=O)[C@@H]1CCCN1C(=O)[C@H](CCC(N)=O)NC(=O)[C@H](Cc1ccccc1)NC(=O)[C@H](CC(=O)O)NC(=O)[C@H](CCCNC(=N)N)NC(=O)[C@H](Cc1c[nH]cn1)NC(=O)[C@@H](NC(=O)[C@H](Cc1c[nH]cn1)NC(C)=O)[C@@H](C)O)C(C)C)C(C)C)C(=O)N[C@@H](CCCNC(=N)N)C(=O)NCC(N)=O [Polypeptide P2T2S18-25] (Ac-HTHRDFQPVLHLVALNSSLSGGMRG-NH2),–,–,–,31%,–
CC[C@H](C)[C@H](NC(=O)CNC(=O)[C@H](CCCNC(=N)N)NC(=O)[C@H](CCSC)NC(=O)CNC(=O)CNC(=O)[C@H](CO)NC(=O)[C@H](CC(C)C)NC(=O)[C@H](CO)NC(=O)[C@H](CO)NC(=O)[C@H](CC(N)=O)NC(=O)[C@H](CC(C)C)NC(=O)[C@H](C)NC(=O)[C@@H](NC(=O)[C@H](CC(C)C)NC(=O)[C@H](Cc1c[nH]cn1)NC(=O)[C@H](CC(C)C)NC(=O)[C@@H](NC(=O)[C@@H]1CCCN1C(=O)[C@H](CCC(N)=O)NC(=O)[C@H](Cc1ccccc1)NC(=O)[C@H](CC(=O)O)NC(=O)[C@H](CCCNC(=N)N)NC(=O)[C@H](Cc1c[nH]cn1)NC(=O)[C@@H](NC(=O)[C@H](Cc1c[nH]cn1)NC(C)=O)[C@@H](C)O)C(C)C)C(C)C)C(=O)N[C@@H](CCCNC(=N)N)C(=O)NCC(=O)N[C@@H](C)C(=O)N[C@@H](CC(=O)O)C(=O)N[C@@H](Cc1ccccc1)C(=O)N[C@@H](CCC(N)=O)C(=O)N[C@@H](CS)C(=O)N[C@@H](Cc1ccccc1)C(=O)N[C@@H](CCC(N)=O)C(N)=O [Polypeptide P2T2S18-35] (Ac-HTHRDFQPVLHLVALNSSLSGGMRGIRGADFQCFQ-NH2),–,–,–,15%,–
CC[C@H](C)[C@H](NC(=O)CNC(=O)[C@H](CCCNC(=N)N)NC(=O)[C@H](CCSC)NC(=O)CNC(=O)CNC(=O)[C@H](CO)NC(=O)[C@H](CC(C)C)NC(=O)[C@H](CO)NC(=O)[C@H](CO)NC(=O)[C@H](CC(N)=O)NC(=O)[C@H](CC(C)C)NC(=O)[C@H](C)NC(=O)[C@@H](NC(=O)[C@H](CC(C)C)NC(=O)[C@H](Cc1c[nH]cn1)NC(=O)[C@H](CC(C)C)NC(=O)[C@@H](NC(=O)[C@@H]1CCCN1C(=O)[C@H](CCC(N)=O)NC(=O)[C@H](Cc1ccccc1)NC(=O)[C@H](CC(=O)O)NC(=O)[C@H](CCCNC(=N)N)NC(=O)[C@H](Cc1c[nH]cn1)NC(=O)[C@@H](NC(=O)[C@H](Cc1c[nH]cn1)NC(C)=O)[C@@H](C)O)C(C)C)C(C)C)C(=O)N[C@@H](CCCNC(=N)N)C(=O)NCC(=O)N[C@@H](C)C(=O)N[C@@H](CC(=O)O)C(=O)N[C@@H](Cc1ccccc1)C(=O)N[C@@H](CCC(N)=O)C(=O)N[C@@H](CS)C(=O)N[C@@H](Cc1ccccc1)C(=O)N[C@@H](CCC(N)=O)C(=O)N[C@@H](CCC(N)=O)C(=O)N[C@@H](C)C(=O)N[C@@H](CCCNC(=N)N)C(=O)N[C@@H](C)C(=O)N[C@H](C(N)=O)C(C)C [Polypeptide P2T2S18-40] (Ac-HTHRDFQPVLHLVALNSSLSGGMRGIRGADFQCFQQARAV-NH2),–,–,–,49%,–
Ac-HTHRDFQPVLHLVALNSSLSGGMRGIRGA-NH2 [Polypeptide P2T2S18-29],–,–,siginficalty higher than P2,–,–
Ac-HTHRDFQPVLHLVALNSSLSGGMRGIRGADFQCFQQARAVGLAGT-NH2 [Polypeptide P2T2S18-45],–,–,–,80%,–
